Series [1] deals with Rhipicephalus sanguineus. The series is described as follows: Dose response protocol for topical application on brown dog ticks (LD50). To be noted: 24 h mortality, probit analysis. The procedure: e) Dose response protocol for topical application on brown dog ticks (Rhipicephalus sanguineus): The test determines the level of insecticidal activity of sample compounds or formulations when applied topically on brown dog ticks. Sample compounds were stored prior to use in a freezer (−5±1° C.), unless otherwise specified.
• Mortality: A tick is defined as dead after it gives no apparent response when touched lightly or gently breathed upon, while observed for 30 seconds. • LD50 (Lethal Dose 50): The dose of a topically applied treatment at which 50% of the dog ticks are killed. • Reference compound: To assess an experimental compound for significant acaricidal activity a single dose level is chosen, which is based upon known results from previous experiments using a commercially available active i.e., a reference compound. The reference compound selected is one in common use, and one that has a similar mode of action against the Brown Dog Tick (i.e., the test species), • Recovery container: A recovery container consists of a 500 ml round plastic container measuring 115 mm diameter and 70 mm height, with a tight fitting lid that has 10 small (˜1 mm) holes inserted for air exchange. A 90 mm diameter piece of filter paper was placed on the bottom of the container and moistened with 1 mL of distilled water.
Adult, mixed sex, Brown Dog Ticks (Rhipicephalus sanguineus) were reared as follows: (i) cultured, (ii) transferred unfed, to a testing laboratory, and (iii) then maintained under controlled conditions (i.e., temp. 18°±2° C., humidity 75±5% RH). The ticks used were selected for vigor prior to testing, i.e., capable of actively walking and responsive to being touched or gently breathed upon.
During the testing, the temperature was maintained at 25±1° C. and the humidity was ambient. Seven dose levels (concentrations) of sample compound, in the form of serial dilutions in acetone, were derived from a pilot study and covered a range that produced very low to very high mortality. Groups of ten ticks were treated topically (on the abdomen) with 1 μL of a single dose level of the sample compound. Each test was replicated four times, i.e., employing a total of 40 ticks per dose level of each sample compound. As a control, ten ticks were treated with solvent only (acetone) for each test. Following the treatment, the ticks were held in recovery containers maintained under appropriate rearing conditions for 24 hours. Mortality resulting from the treatments was recorded at 24 hours. […] Press, London (1971).]

Series [2] relates to Ctenocephalides felis. As to the kind of experiment: Ctenocephalides felis adulticide assay: C. felis dose response (LC50).
For series [3], the system named is Rhipicephalus sanguineus. The series is described as follows: Rapid screening protocol for topical application on brown dog ticks (% mortality). On the set-up: concentration or dose not given beside the values. Put shortly:
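Mixed-sex unfed adult ticks each received 1 μL test sample in acetone on the abdomen at a single screening dose chosen above the reference LD90 (fipronil 10 μg/tick), with acetone-only controls; 4 replicates of 10 ticks. Held 24 h at 25±1 °C; ticks unresponsive to light touch over 1 min scored dead, pooled as % mortality.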

The subject of series [4] is Ctenocephalides felis. Put shortly:
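Adult cat fleas (3–7 days post-emergence), 15 per flask in ≥4 replicates, exposed to a dried acetone residue at 1.26 μg/cm^2 on a Coatasil-treated glass flask base. Held at 25±1° C, 75±5% humidity; mortality (immobile or unable to right) scored at 8, 24 and/or 48 h.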

SMILES strings stand for the structures. Read-outs that look alike come from different tables or passages of the source.

For `C/C(=N\N(C)C1CCCCC1)c1cc(Cl)ccc1NS(=O)(=O)C(F)(F)F` [Compound 215], the “R. sanguineus LD50” value with Rhipicephalus sanguineus [1] is 1.29 μg/tick. Further, the “C. felis LC50” value with Ctenocephalides felis [2] was determined as 2.54 ppm. Moreover, the “R. sanguineus Mortality (%) 24 h” value in the series with Rhipicephalus sanguineus [3] (data from laboratory 2) is recorded as 73%. For the same compound, in the series with Ctenocephalides felis [4], the “C. felis Mortality (%) 8 h” value turned out to be 8% and the “C. felis Mortality (%) 24 h” value is 100%.
`CCN(N=C(C)c1cc(Cl)ccc1NS(=O)(=O)C(F)(F)F)c1cccc(Cl)c1` [Compound 38]: the “R. sanguineus LD50” value with Rhipicephalus sanguineus [1] came out at 3.6 μg/tick. The “C. felis LC50” value in the series on Ctenocephalides felis [2] was 2.5 ppm. For the same compound, the “R. sanguineus Mortality (%) 24 h” value with Rhipicephalus sanguineus [3] (data from laboratory 2) was determined as 98%. Further, in the series on Ctenocephalides felis [4], the “C. felis Mortality (%) 24 h” value is 100% and the “C. felis Mortality (%) 48 h” value is 100%.
Regarding `CC(=NN1CCOCC1)c1cc(Cl)ccc1NS(=O)(=O)C(F)(F)F` [Compound 20], the “R. sanguineus LD50” value in the series on Rhipicephalus sanguineus [1] is 0.75 μg/tick. Also, the “C. felis LC50” value in the series on Ctenocephalides felis [2] was determined as 0.86 ppm. Further, in the series with Rhipicephalus sanguineus [3] (data from laboratory 1), the “R. sanguineus Mortality (%) 24 h” value is reported as 95^A %. Besides, in the series with Ctenocephalides felis [4], the “C. felis Mortality (%) 8 h” value is reported as 100% and the “C. felis Mortality (%) 24 h” value came to 100%.
As to `CCCN(N=C(C)c1cc(Cl)ccc1NS(=O)(=O)C(F)(F)F)c1ccccc1` [Compound 25], the “R. sanguineus LD50” value in the series with Rhipicephalus sanguineus [1] turned out to be 1.2 μg/tick. The “C. felis LC50” value in the series with Ctenocephalides felis [2] is 1.8 ppm. Further, the “R. sanguineus Mortality (%) 24 h” value in the series on Rhipicephalus sanguineus [3] (data from laboratory 1) is 75^A %. Moreover, in the series on Ctenocephalides felis [4], the “C. felis Mortality (%) 8 h” value was 100% and the “C. felis Mortality (%) 24 h” value worked out at 100%.
As for `CCN(N=C(C)c1cc(Cl)ccc1NS(=O)(=O)C(F)(F)F)c1ccc(Cl)cc1Cl` [Compound 30], the “R. sanguineus LD50” value with Rhipicephalus sanguineus [1] is given as 8.5 μg/tick. Further, the “C. felis LC50” value with Ctenocephalides felis [2] is recorded as 5.2 ppm. Moreover, in the series on Rhipicephalus sanguineus [3] (data from laboratory 2), the “R. sanguineus Mortality (%) 24 h” value was determined as 90%. Moreover, in the series with Ctenocephalides felis [4], the “C. felis Mortality (%) 24 h” value is listed as 100% and the “C. felis Mortality (%) 48 h” value is 100%.
For `CCCN(N=C(C)c1cc(Cl)ccc1NS(=O)(=O)C(F)(F)F)c1ccc(Cl)cc1` [Compound 27], the “R. sanguineus LD50” value in the series on Rhipicephalus sanguineus [1] amounted to 5.5 μg/tick. In the series on Ctenocephalides felis [2], the “C. felis LC50” value came out at 0.23 ppm. Besides, the “R. sanguineus Mortality (%) 24 h” value in the series with Rhipicephalus sanguineus [3] (data from laboratory 2) was 95%. Also, in the series on Ctenocephalides felis [4], the “C. felis Mortality (%) 24 h” value was 100% and the “C. felis Mortality (%) 48 h” value turned out to be 100%.
As for `CCN(N=C(C)c1cc(Cl)ccc1NS(=O)(=O)C(F)(F)F)c1ccccc1` [Compound 34], in the series with Rhipicephalus sanguineus [1], the “R. sanguineus LD50” value is 3.6 μg/tick. Further, the “C. felis LC50” value in the series on Ctenocephalides felis [2] (data from laboratory 1) amounted to 0.97 ppm. The “R. sanguineus Mortality (%) 24 h” value with Rhipicephalus sanguineus [3] (data from laboratory 2) was determined as 100%. Further, the “C. felis Mortality (%) 24 h” value in the series on Ctenocephalides felis [4] (24 h, data from laboratory 1) was determined as 100%. Besides, the “C. felis Mortality (%) 48 h” value in the series with Ctenocephalides felis [4] (48 h, data from laboratory 1) came to 100%.
Turning to `CCCN(N=C(C)c1cc(Cl)ccc1NS(=O)(=O)C(F)(F)F)c1cccc(F)c1` [Compound 72], the “R. sanguineus LD50” value with Rhipicephalus sanguineus [1] was found to be 3.1 μg/tick. The “C. felis LC50” value in the series with Ctenocephalides felis [2] came to 1.5 ppm. The “R. sanguineus Mortality (%) 24 h” value in the series with Rhipicephalus sanguineus [3] (data from laboratory 2) was determined as 100%. In addition, in the series with Ctenocephalides felis [4], the “C. felis Mortality (%) 8 h” value was 100% and the “C. felis Mortality (%) 24 h” value was 100%.
For the compound `CC(=NN1CCCC1)c1cc(Cl)ccc1NS(=O)(=O)C(F)(F)F` [Compound 116], the “R. sanguineus LD50” value in the series on Rhipicephalus sanguineus [1] is recorded as 0.74 μg/tick. The “C. felis LC50” value in the series with Ctenocephalides felis [2] amounted to 2.66 ppm. Further, in the series on Rhipicephalus sanguineus [3] (data from laboratory 2), the “R. sanguineus Mortality (%) 24 h” value is reported as 93%. In the series on Ctenocephalides felis [4], the “C. felis Mortality (%) 8 h” value was found to be 98% and the “C. felis Mortality (%) 24 h” value turned out to be 100%.
Consider `CCOC(=O)N(CC)N=C(C)c1cc(Cl)ccc1NS(=O)(=O)C(F)(F)F` [Compound 125], for which the “R. sanguineus LD50” value in the series on Rhipicephalus sanguineus [1] turned out to be 0.64 μg/tick. Moreover, the “C. felis LC50” value in the series on Ctenocephalides felis [2] was found to be 3.62 ppm. Besides, the “R. sanguineus Mortality (%) 24 h” value with Rhipicephalus sanguineus [3] (data from laboratory 2) worked out at 95%. Besides, in the series with Ctenocephalides felis [4], the “C. felis Mortality (%) 8 h” value was found to be 82% and the “C. felis Mortality (%) 24 h” value worked out at 100%.
For `CCN(N=C(C)c1cc(Cl)ccc1NS(=O)(=O)C(F)(F)F)c1ccc(F)cc1` [Compound 39], in the series with Rhipicephalus sanguineus [1], the “R. sanguineus LD50” value was found to be 3.6 μg/tick. Besides, the “C. felis LC50” value with Ctenocephalides felis [2] is recorded as 0.14 ppm. In the series on Rhipicephalus sanguineus [3] (data from laboratory 2), the “R. sanguineus Mortality (%) 24 h” value amounted to 100%. In the series on Ctenocephalides felis [4], the “C. felis Mortality (%) 24 h” value was found to be 100% and the “C. felis Mortality (%) 48 h” value is given as 100%.

Source of the values: US20070238700A1, “N-PHENYL-1,1,1-TRIFLUOROMETHANESULFONAMIDE HYDRAZONE DERIVATIVE COMPOUNDS AND THEIR USAGE IN CONTROLLING PARASITES” (priority 2006, published 2007).
